For data set [1], the system named is SARS-CoV-2. As to the kind of experiment: microbe, parasite or virus in culture. It is filed as cell-based. The note with it: MOI 0.001, day 3 post-infection; for EC50: Severe acute respiratory syndrome coronavirus 2, Vero C1008, 72 h, footnote a: CPE assay, SARS-CoV-2-infected Vero E6 cells, read-out: EC50 (anti-SARS-CoV-2 activity, CPE assay); for Anti-SARS-CoV-2 activity by CPE assay (crystal violet staining): Vero E6 cells, 30 μM in Figure 2.

A short description of data set [2]: Cytotoxicity by WST-8 assay using uninfected Vero E6 cells. It is filed as cell-based. The note with it: African green monkey. On the technique in general: Tetrazolium dyes change colour on reduction, which living cells bring about.
Data set [3] has as its system SARS-CoV-2. As to the kind of experiment: Syrian hamster model of COVID-19, inhalation treatment by nebulizer. The note with it: for Inflammatory area of lung sections: lung histopathology 5 dpi, INH 110 mg/kg/day qd.
The subject of data set [4] is SARS-CoV-2. Description: Syrian hamster model of COVID-19, intraperitoneal treatment. The note with it: for Body weight change of infected hamsters / Inflammatory area of lung sections: IP, 2 at 110 mg/kg/day qd, Molnupiravir 220 mg/kg/day bid; for Inflammatory area of lung sections: lung histopathology 5 dpi.
Data set [5] has as its system SARS-CoV-2. Description: qRT-PCR of viral RNA using SARS-CoV-2-infected Vero E6 cells. It is filed as cell-based. The note with it: Severe acute respiratory syndrome coronavirus 2, Vero C1008, footnote b: qRT-PCR of viral RNA, MOI 0.001, non-linear curve fit, read-out: EC50 (95% CI) (anti-SARS-CoV-2 activity, qRT-PCR of viral RNA).
The target in data set [6] is recombinant SARS-CoV-2 RdRp complex (Severe acute respiratory syndrome coronavirus 2, UniProt P0DTD1). It is filed as biochemical. The note with it: 10 μM, 34°C, 2 h.
Data set [7] addresses T1, vaccinia capping enzyme (VCE) (Vaccinia virus, UniProt P04298).
T1 construct: purchased CellScript C-SCCS2250
It is filed as biochemical. The note with it: model RNA fragment, 37°C, 2 h, LC-MS.

Setting [8] is: WST-8 assay, uninfected Vero E6 cells, read-out: CC50.

The source of these data is article PMC11960675, “3-Deazaguanosine inhibits SARS-CoV-2 viral replication and reduces the risk of COVID-19 pneumonia in hamster” (iScience, 2025).

Each structure is given as a SMILES string. Values joined by “and” are separate entries in the source; they are usually repeats but may differ in a detail not shown here. Equal values may be shown once. Read-outs that look alike come from different tables or passages of the source.

What is called EC50 is the midpoint of the concentration-response curve. Usually CC50 stands for the concentration giving 50% cytotoxicity.

With `Nc1nccc2c1ncn2[C@@H]1O[C@H](CO)[C@@H](O)[C@H]1O` [Compound 1, 3-deazaadenosine], the EC50 in data set [1] is greater than 30 µM. Further, in data set [2], the 50% cytotoxic concentration (CC50) was greater than 200 µM.
`Nc1cc2c(ncn2[C@@H]2O[C@H](CO)[C@@H](O)[C@H]2O)c(=O)[nH]1` [Compound 2, 3-Deazaguanosine]: the “Lower infectious viral titer in lungs (fold)” value in data set [3] (5 dpi, inhalation, approximately 110 mg/kg/day qd) is on record as “more than 10^2 fold”; in data set [4] (2 dpi, IP 110 mg/kg/day qd), > 10^5 fold. Further, in data set [3] (inhalation, approximately 110 mg/kg/day qd), the “Body weight loss associated with infection” value is reported as “reduction in the body weight loss”. The “Inflammatory area of lung sections” value was 0.98 (±0.36) % and 0.98 ± 0.36% in data set [3]; 0.02 ± 0.02% in data set [4]. For the same compound, the “Anti-SARS-CoV-2 activity by CPE assay (crystal violet staining)” value (from here on “Anti-SARS-CoV-2 activity by CPE assay”) in data set [1] is “inhibited viral replication”. Besides, the “Body weight change of infected hamsters” value in data set [4] is “marginal reduction in body weight”. Further, in data set [5], the concentration for a half-maximal effect (EC50) was found to be 1.14 µM. In data set [2], this compound showed a cytotoxic concentration (CC50) greater than 200 µM.
As to `Nc1cc2c(ncn2[C@@H]2O[C@H](COP(=O)(O)OP(=O)(O)OP(=O)(O)O)[C@@H](O)[C@H]2O)c(=O)[nH]1` [Compound 2-TP, 6-Amino-1-(β-D-ribofuranosyl)-1H-imidazo[4,5-c]pyridin-4(5H)-one 5′-triphosphate], the “RNA synthesis by recombinant SARS-CoV-2 RdRp complex (fluorescence intensity)” value in data set [6] is on record as “not inhibited”. In addition, in data set [7], the “5′-capped RNA formed by VCE in the presence of both GTP and the compound” value is reported as “no 5′-capped RNA”; the “5′-capped RNA formed by VCE with the compound in place of GTP” value was “small amounts of 5′-C^3GpppA-capped RNA (IIIb) and 5′-m7C^3GpppG-capped RNA (IVb)”.
On to `OC[C@H]1O[C@@H](n2cnc3c(O)nccc32)[C@H](O)[C@@H]1O` [Compound 3, 3-deazainosine], for which the half-maximal effective concentration (EC50) in data set [1] was greater than 30 µM. The compound further gave a CC50 in data set [2] greater than 200 µM.
Take `Nc1[nH]c(=O)c2ncn([C@@H]3O[C@H](CO)[C@@H](O)[C@H]3O)c2c1F` [Compound 4, 3-fluoro-3-Deazaguanosine]: in data set [1], the EC50 is greater than 30 µM and the “Anti-SARS-CoV-2 activity by CPE assay” value is recorded as “loss of anti-viral activity”. The half-maximal cytotoxic concentration (CC50) in data set [2] is greater than 200 µM.
With `Nc1[nH]c(=O)c2ncn([C@@H]3O[C@H](CO)[C@@H](O)[C@H]3O)c2c1Cl` [Compound 5, 3-chloro-3-Deazaguanosine], in data set [1], the EC50 was greater than 30 µM and the “Anti-SARS-CoV-2 activity by CPE assay” value is “loss of anti-viral activity”. The CC50 in data set [2] was greater than 200 µM.
`Nc1cc2c(ncn2[C@@H]2O[C@H](CO)[C@@H](O)[C@H]2O)c(N)n1` [Compound 6, 4,6-Diamino-1-β-D-ribofuranosyl-1H-imidazo[4,5-c]pyridine]: in data set [1], the EC50 was greater than 30 µM and the “Anti-SARS-CoV-2 activity by CPE assay” value is “no inhibitory effects”. This compound also came in with a CC50 in data set [2] greater than 200 µM.
As to `Nc1cc2[nH]cnc2c(=O)[nH]1` [Compound 10, 6-Amino-1H-Imidazo[4,5-c]pyridin-4(5H)-one], the “Anti-SARS-CoV-2 activity by CPE assay” value in data set [1] was “had anti-SARS-CoV-2 activity”. In data set [5], the concentration giving a half-maximal response (EC50) was found to be 12.6 µM. Further, the CC50 in data set [2] (setting [8]) is greater than 200 µM.
Take `Nc1cc2c(ncn2[C@H]2C[C@H](O)[C@@H](CO)O2)c(=O)[nH]1` [Compound 11, 6-Amino-1-(2-deoxy-β-D-ribofuranosyl)-1H-imidazo[4,5-c]pyridin-4(5H)-one]: in data set [1], the “Anti-SARS-CoV-2 activity by CPE assay” value is on record as “had anti-SARS-CoV-2 activity”. Also, the EC50 in data set [5] is 5.35 µM. This compound registered a CC50 in data set [2] greater than 200 µM.
Take `CC(C)C(=O)OC[C@H]1O[C@@H](n2ccc(NO)nc2=O)[C@H](O)[C@@H]1O` [Molnupiravir, reference compound]: in data set [3], the “Inflammatory area of lung sections” value is listed as 4.77 (±3.04) %. In addition, in data set [4], the “Body weight change of infected hamsters” value is “marginal reduction in body weight” and the “Inflammatory area of lung sections” value was 0.24 ± 0.16%.
Regarding `O=c1nc(NO)ccn1[C@@H]1O[C@H](CO)[C@@H](O)[C@H]1O` [NHC, N^4-hydroxy cytidine, reference compound], the EC50 in data set [5] was found to be 0.27 µM. Besides, in data set [2], the CC50 is greater than 200 µM.
`CCC(CC)COC(=O)[C@H](C)N[P@](=O)(OC[C@H]1O[C@@](C#N)(c2ccc3c(N)ncnn23)[C@H](O)[C@@H]1O)Oc1ccccc1` [Remdesivir, reference compound]: in data set [5], the concentration giving a half-maximal response (EC50) amounted to 0.47 µM. Further, in data set [2] (setting [8]), the CC50 is greater than 200 µM.
Take `Nc1nc2c(ncn2[C@H]2CC[C@@H](COP(=O)(O)OP(=O)(O)OP(=O)(O)O)O2)c(=O)[nH]1` [ddGTP, 2′,3′-dideoxy GTP, reference compound]: the “RNA synthesis by recombinant SARS-CoV-2 RdRp complex (fluorescence intensity)” value in data set [6] is reported as “reduced”.
